Inhibition data for one molecule are collected here from paper PMC6934184, “Selective DNA-PKcs inhibition extends the therapeutic index of localized radiotherapy and chemotherapy” (The Journal of Clinical Investigation, 2019).

The assay addresses T1, PIK3CG (p110 gamma) (Homo sapiens, UniProt P48736).
T1 construct: purchased Thermo Fisher Scientific (Life Technologies) SelectScreen
The assay is described as follows: SelectScreen Adapta. Format: biochemical. The essentials: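 Percent values come from Thermo SelectScreen profiling of NU5455, combining activity and binding assays. CSF1R was run in Z'LYTE format at Km app ATP, and CAMK1 in Adapta format with ATP listed at 10.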

T1 sequence (P48736 whole entry): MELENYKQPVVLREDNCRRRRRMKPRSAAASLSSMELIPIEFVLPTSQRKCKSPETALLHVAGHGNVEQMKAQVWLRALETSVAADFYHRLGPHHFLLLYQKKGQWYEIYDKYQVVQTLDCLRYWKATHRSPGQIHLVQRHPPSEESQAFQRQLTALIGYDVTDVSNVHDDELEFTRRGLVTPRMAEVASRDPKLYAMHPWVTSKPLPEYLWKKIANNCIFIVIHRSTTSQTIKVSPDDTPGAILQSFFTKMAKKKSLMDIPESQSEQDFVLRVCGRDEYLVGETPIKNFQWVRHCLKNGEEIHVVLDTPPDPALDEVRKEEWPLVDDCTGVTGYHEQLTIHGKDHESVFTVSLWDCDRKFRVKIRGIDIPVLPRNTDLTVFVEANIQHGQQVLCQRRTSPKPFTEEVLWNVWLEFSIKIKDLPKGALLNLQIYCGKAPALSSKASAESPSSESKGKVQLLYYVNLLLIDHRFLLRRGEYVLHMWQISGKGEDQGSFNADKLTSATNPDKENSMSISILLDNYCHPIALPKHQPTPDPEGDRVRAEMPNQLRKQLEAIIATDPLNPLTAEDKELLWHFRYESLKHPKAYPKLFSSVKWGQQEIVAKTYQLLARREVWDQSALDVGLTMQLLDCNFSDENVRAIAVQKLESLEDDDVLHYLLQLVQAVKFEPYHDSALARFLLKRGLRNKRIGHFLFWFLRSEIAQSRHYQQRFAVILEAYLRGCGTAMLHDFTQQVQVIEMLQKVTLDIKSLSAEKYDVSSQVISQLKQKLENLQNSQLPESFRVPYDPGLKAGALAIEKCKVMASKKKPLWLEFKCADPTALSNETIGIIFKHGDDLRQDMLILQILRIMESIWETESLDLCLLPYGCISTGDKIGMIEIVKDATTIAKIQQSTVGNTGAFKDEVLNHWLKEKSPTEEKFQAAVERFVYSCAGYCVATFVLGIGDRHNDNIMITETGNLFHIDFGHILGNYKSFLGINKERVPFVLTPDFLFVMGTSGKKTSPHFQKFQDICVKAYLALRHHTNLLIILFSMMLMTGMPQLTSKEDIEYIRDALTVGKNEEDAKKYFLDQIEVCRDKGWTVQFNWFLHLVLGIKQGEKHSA

As a reminder, the inhibition is the relative decrease from the control value, in per cent. A higher inhibition goes with strong suppression. `CN(C(=O)CN1CCOCC1)c1ccc2sc3c(-c4cccc5c(=O)cc(N6CC7CCC(C6)O7)oc45)cccc3c2c1` [NU5455] showed an inhibition at 1 µM of 2.9%.
